# From ChEMBL document CHEMBL1132402, “Conformations of trypsin-bound amidine inhibitors of blood coagulant factor Xa by double REDOR NMR and MD simulations” (J Med Chem, 1999)
# Assays:
# Coagulation factor X = Coagulation factor X (Homo sapiens, UniProt P00742); assay: Inhibitory constant against Coagulation factor Xa (factor Xa); design: species or system Bos taurus
# Serine protease 1 = target: T1, Serine protease 1 (Bos taurus, UniProt P00760); assay: Inhibitory constant against trypsin
# T1 sequence (P00760 whole entry): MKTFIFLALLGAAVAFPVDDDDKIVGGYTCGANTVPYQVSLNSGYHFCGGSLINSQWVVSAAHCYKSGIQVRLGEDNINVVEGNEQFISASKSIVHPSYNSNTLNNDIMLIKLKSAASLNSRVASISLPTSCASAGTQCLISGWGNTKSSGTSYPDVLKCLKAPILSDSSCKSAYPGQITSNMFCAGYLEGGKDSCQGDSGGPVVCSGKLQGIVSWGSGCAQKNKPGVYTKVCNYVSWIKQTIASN
# Chain of Coagulation factor X (P00742 41-179 limits assumed): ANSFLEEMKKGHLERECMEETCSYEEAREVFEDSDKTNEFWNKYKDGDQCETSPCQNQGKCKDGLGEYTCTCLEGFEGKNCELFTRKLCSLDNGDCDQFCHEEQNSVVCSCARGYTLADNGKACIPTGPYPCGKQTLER
# Chain of Coagulation factor X (P00742 235-488 limits assumed): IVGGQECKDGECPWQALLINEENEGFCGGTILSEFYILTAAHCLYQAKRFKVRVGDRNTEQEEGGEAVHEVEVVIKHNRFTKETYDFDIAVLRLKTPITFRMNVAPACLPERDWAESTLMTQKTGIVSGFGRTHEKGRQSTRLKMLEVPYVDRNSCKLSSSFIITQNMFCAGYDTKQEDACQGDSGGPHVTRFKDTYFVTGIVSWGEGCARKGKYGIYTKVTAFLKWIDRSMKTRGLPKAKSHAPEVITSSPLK
Ki (Coagulation factor X) [µM],Ki (Serine protease 1) [µM],SMILES
0.012,0.74,Cc1c(F)c(Oc2cccc(C(=N)N)c2)cc(Oc2cccc(C(=N)N)c2)c1F
1.4,2.9,Cc1c(F)c(Oc2cccc(CN)c2)cc(Oc2cccc(C(=N)N)c2)c1F
